Measurements from ChEMBL document CHEMBL1147954, “Synthesis and antiproliferative activity of some novel derivatives of diospyrin, a plant-derived naphthoquinonoid” (Bioorg Med Chem, 2007).

What was measured:
[1] = test system: PBMC; assay: Cytotoxicity against human PBMCs after 24 hrs by MTT assay; assay type: cell-based
[2] = Cytotoxicity against mouse EAC cells after 24 hrs by MTT assay; assay type: functional, cell-based; conditions: Ehrlich
[3] = test system: HEp-2; assay: Cytotoxicity against human Hep2 cells after 24 hrs by MTT assay; assay type: functional, cell-based; conditions: HEp-2, 24 h
[4] = test system: A-375; assay: Cytotoxicity against human A375 cells after 24 hrs by MTT assay; assay type: functional, cell-based; conditions: A-375, 24 h

Row | Structure (SMILES) | IC50 [1] | IC50 [2] | IC50 [3] | IC50 [4]
1 | COc1cc(C)cc2c1C(=O)C=C(c1c(C)cc3c(c1OC)C(=O)C(NCCO)=CC3=O)C2=O | 21800 nM | 1070 nM | 1410 nM | 3180 nM
2 | COc1cc(C)cc2c1C(=O)C1OC1(c1c(C)cc3c(c1OC)C(=O)C1OC1C3=O)C2=O (stereo unspecified) | 98200 nM | 90 nM | 210 nM | 30 nM
3 | COc1cc(C)cc2c1C(=O)C=C(c1c(C)cc3c(c1OC)C(=O)C=CC3=O)C2=O | 53300 nM | 650 nM | 390 nM | 200 nM
4 | CCOc1cc(C)cc2c1C(=O)C=C(c1c(C)cc3c(c1OCC)C(=O)C(NCCO)=CC3=O)C2=O | 65400 nM | 30 nM | 850 nM | 70 nM
5 | CCOc1cc(C)cc2c1C(=O)C=C(c1c(C)cc3c(c1OCC)C(=O)C=CC3=O)C2=O | 55500 nM | 580 nM | 2390 nM | 1070 nM
6 | Cc1cc(O)c2c(c1)C(=O)C(c1c(C)cc3c(c1O)C(=O)C=CC3=O)=CC2=O [DIOSPYRIN] | 78300 nM | 840 nM | 3580 nM | 820 nM
7 | COc1cccc2c1C(=O)c1c(O)c3c(c(O)c1C2=O)C[C@@](O)(C(=O)CO)C[C@@H]3O[C@H]1C[C@H](N)[C@H](O)[C@H](C)O1 [DOXORUBICIN] | 15500 nM | > 10000 nM | 420 nM | 10 nM
8 | COc1cc(C)cc2c1C(=O)C=C(c1c(C)cc3c(c1OC)C(=O)C(SCCO)=CC3=O)C2=O | 95500 nM | 260 nM | 1730 nM | 190 nM
9 | CCOc1cc(C)cc2c(O)c(-c3c(C)cc4c(O)ccc(O)c4c3OCC)cc(O)c12 | 59600 nM | 390 nM | 1670 nM | 960 nM
